Broadly, the Ki is a dissociation constant, usually derived from enzyme kinetics or from competition with a known ligand. Low readings indicate tighter binding, high ones weaker binding.

This is an account of results in BindingDB's records for doi:10.1080/14756360903179351 (University of Tehran, 2010).

Molecules are shown by their SMILES. “And” between values parts separate entries of the source, which are not always exact repeats. Identical values can stand only once. Counter-ions that a name gives are not always drawn.

This experiment concerns the target T1, Polyphenol oxidase 1 (White button mushroom, UniProt Q00024).
T1 sequence (Q00024 whole entry): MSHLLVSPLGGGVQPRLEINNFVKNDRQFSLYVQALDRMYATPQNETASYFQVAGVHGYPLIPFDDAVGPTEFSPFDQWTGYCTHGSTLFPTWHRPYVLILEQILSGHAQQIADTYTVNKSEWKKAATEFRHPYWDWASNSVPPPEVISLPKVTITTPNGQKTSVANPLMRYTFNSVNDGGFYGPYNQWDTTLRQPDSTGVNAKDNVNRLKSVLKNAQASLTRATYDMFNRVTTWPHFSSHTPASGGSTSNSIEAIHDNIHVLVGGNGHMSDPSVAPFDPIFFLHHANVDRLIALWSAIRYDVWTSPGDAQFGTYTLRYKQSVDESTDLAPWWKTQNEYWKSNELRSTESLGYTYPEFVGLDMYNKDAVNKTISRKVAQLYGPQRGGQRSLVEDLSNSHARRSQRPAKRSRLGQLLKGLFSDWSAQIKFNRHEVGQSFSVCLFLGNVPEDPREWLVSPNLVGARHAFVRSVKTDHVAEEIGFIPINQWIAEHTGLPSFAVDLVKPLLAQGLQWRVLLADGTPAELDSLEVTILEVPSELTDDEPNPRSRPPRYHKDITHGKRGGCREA
Briefly: MT Kinetic Assay. As to conditions: pH 6.8. The procedure:
The assay was performed as previously described with slight modifications [Chen et al., J. Agric. Food Chem., 50:4108-12]. The reaction medium was 1 mL in 50 mM phosphate buffer (pH 6.8). The final concentration of mushroom tyrosinase was 26.07 μg/mL for cresolase activity and 6.52 μg/mL for catecholase activity. Freshly prepared enzyme, substrate, and dithiocarbamates I and II were used in this work. The reaction was carried out under constant temperatures of 27 and 37°C. Substrate addition followed incubation of the enzyme with different concentrations of synthetic inhibitors.

As to `S=C(S)NCc1ccc(CNC(=S)S)cc1` [p-Xylidine-bis(dithiocarbamate) sodium salt (II)], the Ki by setting is: (27 °C) 0.64 µM and 0.29 µM; (37 °C) 0.95 µM and 1.05 µM.

Consider `S=C(S)NCc1ccccc1`, for which the Ki was 14.1 µM and 9.4 µM (27 °C); 5.9 µM and 5.7 µM (37 °C).
